US10111434B2, “Binary fungicidal mixtures” (BAYER CROPSCIENCE AG, priority 2012, dated 2018)

Experiments:
Phakopsora pachyrhizi = assay: Phakopsora test (soybeans)/preventive; type: in vivo; conditions: preventive spray, evaluated 7 days after inoculation
Method: Phakopsora Test (Soybeans)/Preventive
(§1) To produce a suitable preparation of active compound, 1 part by weight of active compound is mixed with the stated amounts of solvent and emulsifier, and the concentrate is diluted with water to the desired concentration.
(§2) To test for preventive activity, young plants are sprayed with the preparation of active compound at the stated rate of application. After the spray coating has dried on, the plants are inoculated with an aqueous spore suspension of the causal agent of soybean rust (Phakopsora pachyrhizi) and stay for 24 h without light in an incubation cabinet at approximately 24° C. and a relative atmospheric humidity of 95%.
The plants remain in the incubation cabinet at approximately 24° C. and a relative atmospheric humidity of approximately 80% and a day/night interval of 12 h.
The test is evaluated 7 days after the inoculation. 0% means an efficacy which corresponds to that of the untreated control, while an efficacy of 100% means that no disease is observed.

Alternaria solani = assay: Alternaria test (tomatoes)/preventive; type: in vivo; conditions: preventive spray, evaluated 3 days after inoculation
Method: Alternaria Test (Tomatoes)/Preventive
as §1
as §2, with “Alternaria solani. The plants are then placed” for “the causal agent of soybean rust (Phakopsora pachyrhizi) and stay for 24 h without light”, “20°” for “24°”, “100%.” for “95%.”
The test is evaluated 3 days after the inoculation. 0% means an efficacy which corresponds to that of the untreated control while an efficacy of 100% means that no disease is observed.

| Compound | Efficacy in % found (Phakopsora pachyrhizi; 2.5 ppm a.i.) [%] | Efficacy in % found (Alternaria solani; 2.5 ppm a.i.) [%] | Efficacy in % found (Phakopsora pachyrhizi; 25 ppm a.i.) [%] | Efficacy in % found (Alternaria solani; 25 ppm a.i.) [%] |
| --- | --- | --- | --- | --- |
| CC1CC(C)(C)c2cccc(NC(=O)c3cn(C)nc3C(F)F)c21 (stereo not drawn) [(I-1), 3-(difluoromethyl)-1-methyl-N-(1,1,3-trimethyl-2,3-dihydro-1H-inden-4-yl)-1H-pyrazole-4-carboxamide] | 68 | 36 |  |  |
| propineb [2.2] |  |  | 0 | 33 |
| Cn1c(=O)c2sc3c(=O)n(C)c(=O)c3sc2c1=O [2.1, 2,6-dimethyl-1H,5H-[1,4]dithiino[2,3-c:5,6-c′]dipyrrole-1,3,5,7(2H,6H)-tetrone] |  |  | 8 | 39 |
